Results as given in publication PMC7456892 (Frontiers in Plant Science, 2020).
“Also recorded” adds a separate entry of the source. Where no end group is shown, it is not given here.

Tests used:
C. graminicola = type: cell-based, Colletotrichum graminicola isolate Carroll-1A-99; conditions: growth assay, 25°C, dark, 40 h, OD 595 nm
pepsin [1] = target: pepsin (Sus scrofa, UniProt P00791); assay: Simulated Gastric Fluid (SGF) pepsin digestion assay; type: in vitro ADME; conditions: pH 1.2
Protocol: Protein samples were analyzed for degradation by SDS PAGE followed by staining with RAPIDStain (Calbiochem) for 1 h after intense washing with ultrapure water. Digestion products from the SGF assays were analyzed by Matrix-assisted laser desorption/ionization time of flight (MALDI TOF) mass spectrometry. Samples were pre-incubated with 0.5 μl of 40 mM DTT for 20 min on the ground steel plate to reduce disulfide bonds. The samples were subsequently mixed with 2,5-dihydroxybenzoic acid (DHB) and the mass to charge ratio was measured for each sample using a Bruker Daltonics Ultraflex III MALDI-TOF/TOF Mass Spectrometer.

F. graminearum = type: cell-based, Fusarium graminearum isolate 73B1A; conditions: growth assay, 25°C, dark, 24 h, OD 595 nm
pepsin [2] = assay: SGF (200 mg NaCl, 10 units pepsin/µg test protein, pH 1.2); conditions: 37°C, up to 60 min
pancreatin = conditions: 37°C, up to 60 min

Sequence of pepsin (Sus scrofa, UniProt P00791) (P00791 60-385): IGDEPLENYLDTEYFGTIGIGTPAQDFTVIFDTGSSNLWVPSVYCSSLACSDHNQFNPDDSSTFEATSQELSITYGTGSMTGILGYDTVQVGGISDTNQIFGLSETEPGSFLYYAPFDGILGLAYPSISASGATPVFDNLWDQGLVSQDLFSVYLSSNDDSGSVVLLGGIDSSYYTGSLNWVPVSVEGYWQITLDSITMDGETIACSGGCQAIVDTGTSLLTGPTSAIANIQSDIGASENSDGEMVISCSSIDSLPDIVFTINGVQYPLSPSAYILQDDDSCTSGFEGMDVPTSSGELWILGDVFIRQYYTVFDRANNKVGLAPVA
Protocol for trypsin (pancreatin): Aliquots (320 µl) of each of SIF (60 mM KH2PO4, pH 7.5, 12 mg/ml pancreatin), SIF minus pancreatin and ultrapure water were added to individual glass vials with stir bars on a submersible stir plate (2mag MIX drive, Sigma Aldrich) in a 37°C water bath for 2 min before the addition of 40 µl of test protein (5 mg/ml) to each vial. Azoalbumin (A-2382, Sigma Aldrich) at a final concentration of 10 mg/ml in ultrapure water was used as the positive control for protease digestion. Protein degradation was assessed by SDS PAGE as described above.

Substance | not cleaved (pepsin [2]) | cleaved bond (pepsin [2]) | further results
NaD1-C3S-C47S: NaD1 variant lacking the Cys3-Cys47 (fourth) disulfide bond (RESKTESNTFPGICITKPPCRKACISEKFTDGHCSKILRRCLCTKPS; not fully specified; ends and bridges not checked; UniProt Q8GTM0 26-72, looked up, variant C3S C47S) |  |  | Antifungal activity against C. graminicola compared with wild type defensin, in words (C. graminicola): as active as unmodified NaD1; Digestion in SGF, result in words (pepsin [1]): partially digested; Size of peptides after digestion in SIF (trypsin (pancreatin)): less than 2300 Da; Antifungal activity against F. graminearum compared with wild type defensin, in words (F. graminearum): as active as unmodified NaD1
RECKTESNTFPGICITKPPCRKACISEKFTDGHCSKILRRCLCTKPC | stable in the SGF assay for more than 60 min; also recorded: not cleaved |  | not cleaved (pancreatin): not digested by SIF (60 min)
RECKTESHRFKGPCITKPPCRKACISEKFTDGHCSKILRRCLCTKPC | not degraded in SGF (60 min) |  | 
RECKTESRAFALECITKPPCRKACISEKFTDGHCSKILRRCLCTKPC |  | A9-F10, 60 min | 
RESKTESRAFALECITKPPCRKACISEFFTDGHCSKILRRCLCTKPS |  | A9-F10, within 1 minute; also recorded: F28-F29, within 1 minute | 
NaD1: class II plant defensin from the ornamental tobacco Nicotiana alata, purified from flowers (RECKTESNTFPGICITKPPCRKACISEKFTDGHCSKILRRCLCTKPC; ends and bridges not checked; cysteine pairing not given here; UniProt Q8GTM0 26-72, looked up) |  |  | Mass of fragments Da at 60 min (pepsin [1]): 5296 Da
RECKTESHRFKGPCITKPPCRKACISEFFTDGHCSKILRRCLCTKPC |  | F28-F29, 10 min; also recorded: T16-K17, 10 min | 
KDCLTRRHGFQGRCLFDRQCAHVCRSDGFIGGQCRGPLRKCFCSRPC | stable in the SGF assay for more than 60 min |  | 
